# From patent US20220202905A1, “COMPOSITION FOR PREVENTING OR TREATING NEUROTROPHIC KERATITIS WHICH CONTAINS PACAP PEPTIDE OR STABILIZED PACAP PEPTIDE” (SENJU PHARMACEUTICAL CO., LTD., priority 2019, published 2022)
# Square brackets hold non-standard residues; d marks the D form. Peptide text beside a SMILES is read from it. Ala(1H-tetrazol-5-yl) = N[C@@H](Cc1nnn[nH]1)C(=O)O
# What was measured:
# [1] = Peptide stability test, phosphate buffer (pH 7.0), 40° C. storage, HPLC remaining rate; assay type: physicochemical; conditions: Table 4; 100 μM in phosphate buffer pH 7.0; HPLC conditions 1
# Protocol: Peptides 1 and 3 to 5 synthesized in Example 2 were weighed and dissolved in phosphate buffer (pH 7.0) to prepare 1.0 mM peptide solutions. The 1.0 mM peptide solutions were then diluted with phosphate buffer to 100 μM. After filtering with Chromatdisk (product of Merck Millipore, Millex-GV, 0.22 μm), each filtrate was dispensed into an LC vial (Waters Deactivated […] prepared peptide solutions were incubated for one month or 2 months in a 40° C. thermostatic bath to obtain stored samples. A simultaneously prepared sample among the peptide solutions that was not stored was used as a standard sample (initial sample). The standard sample and the stored samples were stored at -30° C. until sample analysis. Using the total weight of the aqueous peptide solution and storage vessel as the specimen weight, measurements were recorded as the specimen weights before storage and the specimen weights after storage under different storage conditions. The empty weight of the storage vessel was also measured, and the moisture permeability was determined by the following formula. After stirring the standard sample and the stored samples with a vortex mixer, each peptide solution was transferred to an HPLC vial (Deactivated Qsert vial by Waters Co.). Reverse-phase HPLC (HPLC system: Prominence by Shimadzu Corp.) was conducted under the conditions shown in Table 3 below for analysis of the peptide solutions, and chromatograms were obtained. Guard column: XSelect CSH C18 by Waters Co., 5 μm, 4.6×20 mm Guard Cartridge Detection wavelength: 220 nm Mobile phase A: 0.1% formic acid aqueous solution Mobile phase B: 0.1% acetonitrile formate solution Measuring time: 30 minutes Measuring sample injection rate: 50 μL Flow rate: 1.0 mL/min Sample cooler: 4° C. Column temperature: 40° C. Mobile phase delivery: The mixing ratio of mobile phase A and mobile phase B was varied as shown in Table 3 for linear concentration gradient control. The peak area value for the peptide in the chromatogram was calculated, and the remaining rate (remaining rate before correction for water) was calculated using formula (2). The remaining rate after correction for water was also calculated from the remaining rate before correction for water using formula (3), taking into account the moisture permeability of the vessel. Peptides 10 and 11 synthesized in Example 2 were weighed and dissolved in phosphate buffer (pH 7.0) to prepare 1.0 mM peptide solutions. Each solution was filtered with a Chromatdisk (product of Merck Millipore. Millex-GV, 0.22 μm). Each filtrate was diluted to 100 μM with phosphate buffer (pH 7.0) and dispensed into a tube (Protein LoBind Tube by Eppendorf Co.). The prepared peptide solutions were incubated for one month or 2 months in a 40° C. thermostatic bath to obtain stored samples. A simultaneously prepared sample among the peptide solutions that was not stored was used as a standard sample (initial sample). The standard sample and the stored samples were stored at -30° C. until sample analysis. The remaining rate after correction for water for each peptide among the stored samples was measured in the same manner as Example 4, and the results are shown in Table 8.
# [2] = Peptide stability test, Tris buffer (pH 7.0), 60° C. storage, HPLC remaining rate; assay type: physicochemical; conditions: Table 6; 100 μM in Tris buffer pH 7.0; HPLC conditions 2
# Procedure, shortened: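 Peptides at 100 μM in Tris buffer (pH 7.0) stored 1 or 2 weeks at 60° C.; unstored sample kept at −30° C. as initial reference. Remaining peptide quantified by reversed-phase HPLC at 220 nm (formic acid/acetonitrile gradient, 40° C. column), as water-corrected remaining rate.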
"remaining rate after correction for water, 40° C., 1 month preservation [1]","remaining rate after correction for water, 40° C., 2 months preservation [1]","remaining rate after correction for water, 60° C., 1 week preservation [2]","remaining rate after correction for water, 60° C., 2 weeks preservation [2]",SMILES
37.4%,21.3%,–,–,"CC[C@H](C)[C@H](NC(=O)CNC(=O)[C@H](CC(=O)O)NC(=O)[C@H](CO)NC(=O)[C@@H](N)Cc1cnc[nH]1)C(=O)N[C@@H](Cc1ccccc1)C(=O)N[C@H](C(=O)N[C@@H](CC(=O)O)C(=O)N[C@@H](CO)C(=O)N[C@@H](Cc1ccc(O)cc1)C(=O)N[C@@H](CO)C(=O)N[C@@H](CCCNC(=N)N)C(=O)N[C@@H](Cc1ccc(O)cc1)C(=O)N[C@@H](CCCNC(=N)N)C(=O)N[C@@H](CCCCN)C(=O)N[C@@H](CCC(N)=O)C(=O)N[C@@H](CCSC)C(=O)N[C@@H](C)C(=O)N[C@H](C(=O)N[C@@H](CCCCN)C(=O)N[C@@H](CCCCN)C(=O)N[C@@H](Cc1ccc(O)cc1)C(=O)N[C@@H](CC(C)C)C(=O)N[C@@H](C)C(=O)N[C@@H](C)C(=O)N[C@H](C(=O)N[C@@H](CC(C)C)C(N)=O)C(C)C)C(C)C)[C@@H](C)O [Peptide 1, reference compound]"
–,–,98.4%,92.8%,CC[C@H](C)[C@H](NC(=O)CNC(=O)[C@H](Cc1nnn[nH]1)NC(=O)[C@H](CO)NC(=O)[C@H](Cc1c[nH]cn1)NC(C)=O)C(=O)N[C@@H](Cc1ccccc1)C(=O)N[C@H](C(=O)N[C@@H](Cc1nnn[nH]1)C(=O)N[C@@H](CO)C(=O)N[C@@H](Cc1ccc(O)cc1)C(=O)N[C@@H](CO)C(=O)N[C@@H](CCCNC(=N)N)C(=O)N[C@@H](Cc1ccc(O)cc1)C(=O)N[C@@H](CCCNC(=N)N)C(=O)N[C@@H](CCCCN)C(=O)N[C@@H](CCC(N)=O)C(=O)N[C@@H](CC(C)C)C(=O)N[C@@H](C)C(=O)N[C@H](C(=O)N[C@@H](CCCCN)C(=O)N[C@@H](CCCCN)C(=O)N[C@@H](Cc1ccc(O)cc1)C(=O)N[C@@H](CC(C)C)C(=O)N[C@@H](C)C(=O)N[C@@H](C)C(=O)N[C@H](C(=O)N[C@@H](CC(C)C)C(N)=O)C(C)C)C(C)C)[C@@H](C)O [Peptide 9] (Ac-HS[Ala(1H-tetrazol-5-yl)]GIFT[Ala(1H-tetrazol-5-yl)]SYSRYRKQLAVKKYLAAVL-NH2)
